IC50 and Degradation observed data for three compounds are collected here from US10806737B2, “Compounds and methods for the targeted degradation of fetal liver kinase polypeptides” (Arvinas Operations, Inc., priority 2016, dated 2020).

The subject of one assay is MV4-11 cells. Briefly: Cell proliferation assay (CellTiter 96 AQueous One Solution). The class given is cell-based. Particulars: Homo sapiens. Here is the method:
Protocol for the Cell Proliferation Assays (MV-4-11 Cells).
MV-4-11 or Molm 14 cells were seeded in 96-well plates at a density of 1×10^4 cells/well and treated with various concentrations of the test compounds for 72 hours. The highest concentration was 500 nM and was serially diluted 5-fold seven times. After incubation, 20 μl/well of CellTiter 96® AQueous One Solution Reagent (Promega®) was added and the plate was incubated an additional 3 hours. The absorbance was measured at 490 nm, and cell viability was calculated by comparing to the absorbance of the vehicle-treated control group using GraphPad Prism 7.
Cell viability/survival is illustrated in FIGS. 4A, 4B and 4C, as determined by a cell proliferation assay. […] DC50, IC50, MH+, and NMR data for exemplary PROTAC-34 through PROTAC-38 and PROTAC-34-Epimer (structure shown below) is shown in Table 3 below.

The next assay deals with T1, FLT-3 (Homo sapiens, UniProt P36888, INS600HVDFREYEYD).
T1 construct: probed with antibodies specific for FLT-3 and GAPDH; endogenous in cells; host or cells: MV-4-11 cells
T1 sequence (P36888 with tags, fused parts or gaps INS600HVDFREYEYD): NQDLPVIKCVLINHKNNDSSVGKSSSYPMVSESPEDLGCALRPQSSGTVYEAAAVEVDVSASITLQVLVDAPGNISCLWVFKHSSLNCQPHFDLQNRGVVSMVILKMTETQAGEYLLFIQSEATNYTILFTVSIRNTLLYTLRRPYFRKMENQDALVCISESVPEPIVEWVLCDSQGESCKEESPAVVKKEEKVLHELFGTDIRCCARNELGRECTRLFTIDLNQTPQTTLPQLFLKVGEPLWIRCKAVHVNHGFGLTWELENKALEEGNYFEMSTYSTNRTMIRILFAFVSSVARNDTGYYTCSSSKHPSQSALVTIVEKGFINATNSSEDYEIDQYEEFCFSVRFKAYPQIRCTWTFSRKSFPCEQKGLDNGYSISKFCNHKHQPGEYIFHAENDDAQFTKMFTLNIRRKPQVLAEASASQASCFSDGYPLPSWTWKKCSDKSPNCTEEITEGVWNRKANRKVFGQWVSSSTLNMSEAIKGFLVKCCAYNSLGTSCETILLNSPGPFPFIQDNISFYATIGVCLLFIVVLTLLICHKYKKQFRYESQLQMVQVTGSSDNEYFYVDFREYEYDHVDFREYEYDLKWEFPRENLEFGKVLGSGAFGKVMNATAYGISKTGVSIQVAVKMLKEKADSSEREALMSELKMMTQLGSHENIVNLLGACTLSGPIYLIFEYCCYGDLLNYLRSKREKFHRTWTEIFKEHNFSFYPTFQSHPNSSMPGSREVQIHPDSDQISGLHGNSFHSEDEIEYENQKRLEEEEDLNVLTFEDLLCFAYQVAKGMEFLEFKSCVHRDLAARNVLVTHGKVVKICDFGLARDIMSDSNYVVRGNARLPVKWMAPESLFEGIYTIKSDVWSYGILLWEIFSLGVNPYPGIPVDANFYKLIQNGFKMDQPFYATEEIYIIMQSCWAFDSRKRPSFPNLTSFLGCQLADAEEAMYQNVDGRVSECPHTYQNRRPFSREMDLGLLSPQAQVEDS
In words: Cellular assay of target protein degradation (MV-4-11 cells, westernblot). Format: cell-based. As to conditions: Table 3; FLT-3 degradation, result in words. Here is the method:
Protocol for the Cellular Assay of Target Protein Degradation (MV-4-11 Cells, Westernblot).
MV-4-11 cells (approximately 1 million cells per well) were treated with the indicated concentrations ([…]) of compound for 24 hours. The cells were spun down and washed twice with PBS. The cells were suspended by lysis buffer (50 mM Tris (pH7.4), 150 mM NaCl, 1 mM EDTA, 0.5% NP-40, phosphatase and protease inhibitors) and incubated for an additional 30 min at 4° C. for complete lysis. After another centrifugation (13000 rpm for 15 minutes), the supernatants were kept as cell lysates. The protein concentration of the cell lysates was determined via the bicinchoninic acid (BCA) method. Equal amounts (10-20 μg) of protein samples were subjected to 8-15% SDS-PAGE. The proteins were transferred to nitrocellulose membrane and probed with antibodies specific for FLT-3 and GAPDH.

Read-outs that look alike come from different tables or passages of the source.

With `CC(C)(C)c1cc(NC(=O)Nc2ccc(-c3cn4c(n3)sc3cc(OCCN5CCOCC5)ccc34)cc2)no1` [Quizartinib], the half-maximal inhibitory concentration (IC50) (in general, the concentration that gives 50% inhibition) is 2.34 nM in the assay on MV4-11 cells (MV4-11, 72 h, Table 1, MV4-11 cells, 72 hours, cell viability, read-out: IC50 (nM) MV4-11) and 1.75 nM with MV4-11 cells (MV4-11, 72 h, Table 2, MV4-11 cells, 72 hours, cell viability, read-out: IC50 (nM) MV4-11). For `Cc1ncsc1-c1ccc(CNC(=O)[C@@H]2C[C@@H](O)CN2C(=O)[C@@H](NC(=O)CCOCCOCCOc2ccc3c(c2)sc2nc(-c4ccc(NC(=O)Nc5cc(C(C)(C)C)on5)cc4)cn23)C(C)(C)C)cc1` [PROTAC-34-Epimer], the Degradation observed result at FLT-3 is listed as “No degradation”. Further, in the assay with MV4-11 cells (MV4-11, Table 3, MV4-11, read-out: IC50 [cell line]), the IC50 is 2.27 nM. As to `Cc1ncsc1-c1ccc(CNC(=O)[C@@H]2C[C@@H](O)CN2C(=O)[C@@H](NC(=O)CCOCCCCOc2ccc3c(c2)sc2nc(-c4ccc(NC(=O)Nc5cc(C(C)(C)C)on5)cc4)cn23)C(C)(C)C)cc1` [PROTAC-37], the Degradation observed entry on FLT-3 was “No degradation”.
